≈ marks a conversion by molar mass, not a printed value. Where “and” joins values, the source holds several entries; their conditions need not be identical. Equal entries are not always repeated. Where two headings read alike, the source gives them in different places.
Columns and labels:
S. MRSA = assay: microbe, parasite or virus in culture; format: cell-based; conditions: for inhibition at 3 µM / inhibition at 10 µM / inhibition at 30 µM: Staphylococcus aureus, MRSA; for inhibition at 3 µM: read-out: S. MRSA 3 μM (growth inhibition); for inhibition at 10 µM: read-out: S. MRSA 10 μM (growth inhibition); for inhibition at 30 µM: read-out: S. MRSA 30 μM (growth inhibition)
[1] = format: cell-based
B. Anthracis = assay: microbe, parasite or virus in culture; format: cell-based; conditions: for inhibition at 3 µM / inhibition at 10 µM / inhibition at 30 µM: Bacillus anthracis; for inhibition at 3 µM: read-out: B. Anthracis 3 μM (growth inhibition); for inhibition at 10 µM: read-out: B. Anthracis 10 μM (growth inhibition); for inhibition at 30 µM: read-out: B. Anthracis 30 μM (growth inhibition)
S. aureus strain RN4220 = format: cell-based, Staphylococcus aureus
[2] = tested on: Gram-positive organisms that also encode 2-epimerases; format: cell-based
S. aureus RN4220 [3] = assay: microbe, parasite or virus in culture; format: cell-based; conditions: Staphylococcus aureus, 37° C., 24 hours
S. aureus RN4220 [4] = format: cell-based
B. anthracis ΔSterne = format: cell-based
B. anthracis Sterne = format: in vivo, C57BL/6 mice

| SMILES | inhibition at 3 µM (S. MRSA; 3 μM) | inhibition at 10 µM (S. MRSA; 10 μM) | inhibition at 30 µM (S. MRSA; 30 μM) | MIC, 25% Serum [1] | MIC, No Serum [1] | inhibition at 3 µM (B. Anthracis; 3 μM) | inhibition at 10 µM (B. Anthracis; 10 μM) | inhibition at 30 µM (B. Anthracis; 30 μM) | also measured |
| --- | --- | --- | --- | --- | --- | --- | --- | --- | --- |
| CCC(C(=O)NS(C)(=O)=O)N1C(=O)/C(=C\c2ccc(-c3ccc(Cl)c(Cl)c3)o2)NC1=S (stereo not drawn) [Cmpd 59] | 1.71% | 2.56% | 0.06% | >250 µM | 125 µM (≈ 62.8 µg/mL) | 6.4% | 6.23% | 19.6% | – |
| O=C(O)C(Cc1ccccc1)N1C(=O)/C(=C\c2ccc(-c3ccccc3)o2)NC1=S (stereo not drawn) [Cmpd 60] | -2.55% | -5.71% | -8.8% | >250 µM | 125 µM (≈ 52.3 µg/mL) | 2.29% | 11.6% | 18% | – |
| Cc1oc(=O)oc1COC(=O)C(Cc1ccccc1)N1C(=O)/C(=C\c2ccc(-c3ccc(Cl)c(Cl)c3)o2)NC1=S (stereo not drawn) [Cmpd 64] | 0.71% | -1.48% | -3.34% | >250 µM | >250 µM | -0.01% | 0.22% | -1.34% | – |
| O=C([O-])C(Cc1ccccc1)N1C(=O)/C(=C\c2ccc(-c3ccc(Cl)c(Cl)c3)o2)NC1=S.[Na+] (stereo not drawn) [Cmpd 65] | – | – | – | >250 µM | 7.8 µM | – | – | – | S. MRSA 3 μM (growth inhibition) (S. MRSA; 3 μM): 0.9; S. MRSA 10 μM (growth inhibition) (S. MRSA; 10 μM): 104.72; S. MRSA 30 μM (growth inhibition) (S. MRSA; 30 μM): 105.68; B. Anthracis 3 μM (growth inhibition) (B. Anthracis; 3 μM): 108.67; B. Anthracis 10 μM (growth inhibition) (B. Anthracis; 10 μM): 107.86; B. Anthracis 30 μM (growth inhibition) (B. Anthracis; 30 μM): 104.01 |
| O=C([O-])C(Cc1ccccc1)N1C(=O)/C(=C\c2ccc(-c3cccc(Cl)c3)o2)NC1=S.[Na+] (stereo not drawn) [Cmpd 67] | 0.37% | -4.15% | -7.41% | >250 µM | 250 µM | 6.01% | 4.51% | 87.6% | – |
| N#CNC(=O)C(Cc1ccccc1)N1C(=O)/C(=C\c2ccc(-c3cccc(Cl)c3)o2)NC1=S (stereo not drawn) [Cmpd 68] | -0.24% | -1.1% | -0.93% | >250 µM | 125 µM (≈ 59.6 µg/mL) | -1.9% | 6.31% | 12.5% | – |
| N#CNC(=O)C(Cc1ccccc1)N1C(=O)/C(=C\c2ccc(-c3ccc(Cl)c(Cl)c3)o2)NC1=S (stereo not drawn) [Cmpd 69] | 0.03% | 0.65% | 97.5% | 250 µM (≈ 128 µg/mL) | 15.6 µM (≈ 7.98 µg/mL) | 0.13% | 100% | 99.2% | – |
| O=C(O)C(Cc1ccccc1)N1C(=O)/C(=C\c2ccc(-c3ccnc(Cl)c3)o2)NC1=S (stereo not drawn) [Cmpd 70] | -0.84% | -1.26% | -1.4% | >250 µM | 125 µM (≈ 56.7 µg/mL) | 2.54% | 16% | 4.62% | – |
| O=C(O)C(Cc1ccccc1)N1C(=O)/C(=C\c2ccc(Cl)c(Cl)c2)NC1=S (stereo not drawn) [Cmpd 71] | -0.86% | -2.74% | -5.12% | >250 µM | >250 µM | 0.05% | -8.93% | -17.3% | – |
| O=C(O)C(Cc1ccccc1)N1C(=O)/C(=C\c2ccc(-c3ncc(Cl)cc3Cl)o2)NC1=S (stereo not drawn) [Cmpd 72] | -2.17% | -5.02% | 53% | 250 µM (≈ 122 µg/mL) | 62.5 µM (≈ 30.5 µg/mL) | -13.5% | 9.07% | 98.1% | – |
| O=C(O)C(Cc1ccccc1)N1C(=O)/C(=C\c2ccc(-c3ccc(Br)cc3)s2)NC1=S (stereo not drawn) [Epimerox, 2-{4-[5-(4-bromophenyl)-thiophen-2-ylmethylene]-5-oxo-2-thioxo-imidazolidin-1-yl}-3-phenyl-propionic acid] | – | – | – | – | – | – | – | – | Epimerox concentrations at which strain did not grow (S. aureus strain RN4220): above 7.5 μm1^−1; growth of S. aureus (S. aureus strain RN4220): grew very poorly; growth of many other Gram-positive organisms [2]: inhibited the growth; MIC (S. aureus RN4220 [3]): 8 µg/mL and 16 µM; MIC plateau, serial passage (S. aureus RN4220 [4]): 12 μg m1^−1; starting MIC, serial passage (S. aureus RN4220 [4]): 5.0 μg m1^−1; concentrations that effectively blocked growth (B. anthracis ΔSterne): above 3 μM; B. anthracis in the major organs (B. anthracis Sterne; after 2 days): not observed; B. anthracis in the major organs (B. anthracis Sterne; at 20 hours): detected; animals survived 14 days (B. anthracis Sterne; mouse, in vivo): 100% and 66% |
